PubChem BioAssay (NCI)
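Five compound concentrations were applied to cells in 96-well plates for 48 hours; endpoints were derived by simple linear interpolation of the resulting dose-response curve. TGI: concentration producing complete growth inhibition.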

Columns and labels:
Assay in all cases: DTP human tumour cell line panel, 48 h
[1] = system: 786-0 renal
[2] = system: A498 renal
[3] = system: A549 NSCLC
[4] = system: ACHN renal
[5] = system: CAKI-1 renal
[6] = system: CCRF-CEM leukemia
[7] = system: COLO 205 colon
[8] = system: DLD-1 colon
[9] = system: DMS 114 small cell lung
[10] = system: DMS 273 small cell lung
[11] = system: EKVX NSCLC
[12] = system: HCC-2998 colon
[13] = system: HCT-116 colon
[14] = system: HCT-15 colon
[15] = system: HL-60(TB) leukemia
[16] = system: HOP-18 NSCLC
[17] = system: HOP-62 NSCLC
[18] = system: HOP-92 NSCLC
[19] = system: HT29 colon
[20] = system: IGROV1 ovarian
[21] = system: K-562 leukemia
[22] = system: KM12 colon
[23] = system: KM20L2 colon
[24] = system: LOX IMVI melanoma
[25] = system: LXFL 529 NSCLC
[26] = system: M14 melanoma
[27] = system: M19-MEL melanoma
[28] = system: MALME-3M melanoma
[29] = system: MOLT-4 leukemia
[30] = system: NCI-H226 lung
[31] = system: NCI-H23 lung
[32] = system: NCI-H460 lung
[33] = system: NCI-H522 lung
[34] = system: OVCAR-3 ovarian
[35] = system: OVCAR-4 ovarian
[36] = system: OVCAR-5 ovarian
[37] = system: OVCAR-8 ovarian
[38] = system: RPMI-8226 leukemia
[39] = system: RXF 393 renal
[40] = system: SF-268 CNS
[41] = system: SF-295 CNS
[42] = system: SK-MEL-2 melanoma
[43] = system: SK-MEL-28 melanoma
[44] = system: SK-MEL-5 melanoma
[45] = system: SK-OV-3 ovarian
[46] = system: SN12C renal
[47] = system: SNB-19 CNS
[48] = system: SNB-75 CNS
[49] = system: SNB-78 CNS
[50] = system: SW-620 colon
[51] = system: TK-10 renal
[52] = system: U251 CNS
[53] = system: UACC-257 melanoma
[54] = system: UACC-62 melanoma
[55] = system: UO-31 renal
[56] = system: SF-539 CNS
[57] = system: SR leukemia

`CCN(CC)c1c(C(=O)/C=C/c2ccc(F)cc2)c(-c2ccccc2)nn(C)c1=O` gave a TGI [1] of 23.2 µM, a TGI [2] of 21.1 µM and a TGI [3] of 43.2 µM. The TGI [4] was 20.6 µM, the TGI [5] was 69.6 µM and the TGI [6] was 6.82 µM. It also gave a TGI [7] of 14.8 µM, a TGI [8] of 26.7 µM and a TGI [9] of 19.2 µM. It also gave a TGI [10] of 21 µM, a TGI [11] of 55.3 µM and a TGI [12] of 10.5 µM. It also gave a TGI [13] of 14.5 µM, a TGI [14] of 25.7 µM and a TGI [15] of 15.7 µM. It also gave a TGI [16] of 58.4 µM, a TGI [17] of 28.6 µM and a TGI [18] of 19.4 µM. It also gave a TGI [19] of 18.6 µM, a TGI [20] of 21.9 µM and a TGI [21] of 34.1 µM. It also gave a TGI [22] of 18.9 µM, a TGI [23] of 44.4 µM and a TGI [24] of 23.6 µM. It also gave a TGI [25] of 19.9 µM, a TGI [26] of 25.6 µM and a TGI [27] of 25.1 µM. For the same compound, the TGI [28] was 27.8 µM, the TGI [29] was 5.91 µM and the TGI [30] was 34 µM. The TGI [31] was 16.5 µM, the TGI [32] was 18.8 µM and the TGI [33] was 13.9 µM. It also gave a TGI [34] of 21.2 µM, a TGI [35] of 20.5 µM and a TGI [36] of 41.9 µM. For the same compound, the TGI [37] was 19.1 µM, the TGI [38] was 9.89 µM and the TGI [39] was 11 µM. It also gave a TGI [40] of 35.8 µM, a TGI [41] of 34 µM and a TGI [42] of 16.7 µM. It also gave a TGI [43] of 31.5 µM, a TGI [44] of 21.1 µM and a TGI [45] of 60.8 µM. It also gave a TGI [46] of 21.8 µM, a TGI [47] of 58.4 µM and a TGI [48] of 22.5 µM. For the same compound, the TGI [49] was 44.9 µM, the TGI [50] was 34.8 µM and the TGI [51] was 38.5 µM. For the same compound, the TGI [52] was 19.1 µM, the TGI [53] was 21.2 µM and the TGI [54] was 33.1 µM. The TGI [55] was 24.4 µM.

`CC(C)C(NCc1c2ccccc2[n+]([O-])c2ccccc12)C(=O)O` (stereo unspecified) gave a TGI [1] of over 100 µM, a TGI [2] of over 100 µM and a TGI [3] of over 100 µM. For the same compound, the TGI [4] was over 100 µM, the TGI [5] was over 100 µM and the TGI [6] was over 100 µM. It also gave a TGI [7] of over 100 µM, a TGI [8] of over 100 µM and a TGI [9] of over 100 µM. The TGI [10] was over 100 µM, the TGI [11] was over 100 µM and the TGI [12] was over 100 µM. It also gave a TGI [13] of over 100 µM, a TGI [14] of over 100 µM and a TGI [15] of 76 µM. The TGI [16] was over 100 µM, the TGI [17] was over 100 µM and the TGI [18] was 53.2 µM. It also gave a TGI [19] of over 100 µM, a TGI [20] of over 100 µM and a TGI [21] of over 100 µM. It also gave a TGI [22] of over 100 µM, a TGI [23] of over 100 µM and a TGI [24] of over 100 µM. For the same compound, the TGI [25] was over 100 µM, the TGI [26] was over 100 µM and the TGI [28] was over 100 µM. It also gave a TGI [29] of over 100 µM, a TGI [30] of over 100 µM and a TGI [31] of over 100 µM. It also gave a TGI [32] of over 100 µM, a TGI [33] of over 100 µM and a TGI [34] of over 100 µM. For the same compound, the TGI [35] was over 100 µM, the TGI [36] was over 100 µM and the TGI [37] was over 100 µM. For the same compound, the TGI [38] was 86.5 µM, the TGI [40] was over 100 µM and the TGI [41] was over 100 µM. It also gave a TGI [42] of over 100 µM, a TGI [43] of over 100 µM and a TGI [44] of over 100 µM. It also gave a TGI [45] of over 100 µM, a TGI [46] of over 100 µM and a TGI [47] of over 100 µM. The TGI [48] was over 100 µM, the TGI [49] was over 100 µM and the TGI [50] was over 100 µM. For the same compound, the TGI [51] was over 100 µM, the TGI [52] was over 100 µM and the TGI [53] was over 100 µM. The TGI [54] was over 100 µM and the TGI [55] was over 100 µM.

In the case of `C[C@]12CCC(=O)C(O)=C1CCC2=O`, the TGI [1] is reported as over 100 µM, the TGI [2] is reported as over 100 µM and the TGI [3] is reported as over 100 µM. It also gave a TGI [4] of over 100 µM, a TGI [5] of over 100 µM and a TGI [6] of over 100 µM. For the same compound, the TGI [7] was over 100 µM, the TGI [8] was over 100 µM and the TGI [10] was over 100 µM. It also gave a TGI [11] of over 100 µM, a TGI [12] of over 100 µM and a TGI [13] of over 100 µM. For the same compound, the TGI [14] was over 100 µM, the TGI [15] was over 100 µM and the TGI [16] was over 100 µM. The TGI [17] was over 100 µM, the TGI [18] was over 100 µM and the TGI [19] was over 100 µM. It also gave a TGI [20] of over 100 µM, a TGI [22] of over 100 µM and a TGI [23] of over 100 µM. For the same compound, the TGI [24] was over 100 µM, the TGI [25] was over 100 µM and the TGI [26] was over 100 µM. For the same compound, the TGI [27] was over 100 µM, the TGI [28] was over 100 µM and the TGI [29] was over 100 µM. It also gave a TGI [30] of over 100 µM, a TGI [32] of over 100 µM and a TGI [33] of over 100 µM. For the same compound, the TGI [34] was over 100 µM, the TGI [35] was over 100 µM and the TGI [36] was over 100 µM. For the same compound, the TGI [37] was over 100 µM, the TGI [38] was over 100 µM and the TGI [39] was over 100 µM. For the same compound, the TGI [40] was over 100 µM, the TGI [41] was over 100 µM and the TGI [56] was over 100 µM. It also gave a TGI [43] of over 100 µM, a TGI [44] of over 100 µM and a TGI [45] of over 100 µM. The TGI [46] was over 100 µM, the TGI [47] was over 100 µM and the TGI [48] was over 100 µM. It also gave a TGI [49] of over 100 µM, a TGI [57] of over 100 µM and a TGI [50] of over 100 µM. It also gave a TGI [51] of over 100 µM, a TGI [52] of over 100 µM and a TGI [53] of over 100 µM. The TGI [54] was over 100 µM and the TGI [55] was over 100 µM.
